Experimental data as given in patent US20260152501A1, “CYCLIN MODULATOR” (EUBULUS BIOTHERAPEUTICS (HONG KONG) LIMITED, priority 2022, published 2026).
Where two headings read alike, the source gives them in different places.

Columns and labels:
Assay type in all cases: cell-based
N87 cells = assay: Cell proliferation experiment, N87 cells; settings: Cell Titer-Glo, read-out: Cell antiproliferation data N87
Method: (§1) Reagents: RPMI-1640 medium, McCoy's 5A medium, IMDM medium, MEM medium, L-15 medium, fetal bovine serum, Penicillin-Streptomycin double antibody, trypsin, etc., 2-mercaptoethanol, NEAA, pyruvate, etc.
(§2) The test cells were cultured in conventional ways, and the cells should be passed for at least 2 generations before plating.
(§3) 25 μL of 1000 HT-29, N87, SKOV3, Colo-205 and MDA-MB-231 cells were inoculated in a 384-well plate with black wall and transparent bottom, 25 μL of different concentrations of compounds were added, and the cells were cultured overnight under condition of 37° C. and 5% CO2.
(§4) 25 μL of 1500 H82 and H69 cells were inoculated in a 384-well plate with black wall and transparent bottom, 25 μL of different concentrations of compounds were added, and the cells were cultured for 72 hours under condition of 37° C. and 5% CO2. The 384-well plate was equilibrated at room temperature, 25 μL of Cell Titer-Glo® reagent was added to each well, and the cells were lysed by shaking on a horizontal shaking shaker for 2 minutes, incubated at room temperature for 10 minutes to stabilize the luminescent signal, and then the chemiluminescent signal was detected using Envision.
(§5) All cells were subjected to IC50 test for corresponding samples.
(§6) The fluorescence intensity of each well was detected using the Alarm blue method, and EC50 was calculated.
(§7) IC50 was calculated according to the following formula:
(§8) [formula] • wherein, Min, Max and Slope represent the minimum, maximum and slope respectively.

H69 cells = assay: Cell proliferation experiment, H69 cells; settings: cultured for 72 hours, Cell Titer-Glo, read-out: Cell antiproliferation data H69
Method: as §1, §2, §4
(§9) All cells were subjected to IC50 test for corresponding samples. […]
as §7, §8

HT-29 cells = assay: Cell proliferation experiment, HT-29 cells; settings: Cell Titer-Glo, read-out: Cell antiproliferation data HT-29
Method: as §1, §2, §3, §4, §5, §6, §7, §8

Colo-205 cells = assay: Cell proliferation experiment, Colo-205 cells; settings: Cell Titer-Glo, read-out: Cell antiproliferation data Colo-205
Method: as §1, §2, §3, §4, §5, §6, §7, §8

H82 cells = assay: Cell proliferation experiment, H82 cells; settings: Homo sapiens, NCI-H82, cultured for 72 hours, Cell Titer-Glo, read-out: Cell antiproliferation data H82
Method: as §1, §2, §4, §9, §7, §8

SKOV3 cells = assay: Cell proliferation experiment, SKOV3 cells; settings: Cell Titer-Glo, read-out: Cell antiproliferation data SKOV3
Method: as §1, §2, §3, §4, §5, §6, §7, §8

MDA-MB-231 cells = assay: Cell proliferation experiment, MDA-MB-231 cells; settings: Cell Titer-Glo, read-out: Cell antiproliferation data MDA-MB-231
Method: as §1, §2, §3, §4, §5, §6, §7, §8

Cyclin K = assay: Immunohistochemistry (IHC) staining of Cyclin K in HepG2 cells; settings: incubated with compound 2 hours, CCNK antibody
Method: Appropriate amount of compounds were added to the cultured cells. The cells were incubated in a tissue culture incubator at 37° C. for 2 hours.
After washing the cultured cells twice with PBS, 100 μL 10% neutral buffered formalin were added and the cells were fixed for 20 minutes.
After washing 3 times with PBS, immunohistochemical staining was performed using CCNK antibody and general two-step detection kit (mouse/rabbit enhanced polymer detection system, PV-9000, Zsbio Inc, Beijing).
Specifically, 100 μL of endogenous peroxidase blocker in the kit was added, cells were incubated at room temperature for 10 minutes; rinsed with PBS buffer for 3 minutes×3 times.
100 μL CCNK antibody 1:5000 dilution was added, and the cells were incubated at 37° C. for 60 minutes; rinsed with PBS buffer for 3 minutes×3 times.
100 μL reaction enhancer was added, and the cells were incubated at 37° C. for 20 minutes; rinsed with PBS buffer for 3 minutes×3 times.
100 μL enhanced enzyme-labeled goat anti-mouse/rabbit IgG polymer was added, and the cells were incubated at 37° C. for 20 minutes; rinsed with PBS buffer for 3 minutes×3 times.
The cells were placed in 75% ethanol, soaked for 3 minutes×2 times; placed in 95% ethanol, soaked for 3 minutes×2 times; after removing excess liquid, placed in anhydrous ethanol, soaked for 3 minutes×3 times; after removing excess liquid, air dried, observed under a microscope and taken pictures after sealing.

HepG2 cells = assay: Antiproliferative effect on HepG2 cells; settings: Homo sapiens
Method: as §1, §2, §5, §6, §7, §8

[1] = Homo sapiens, COLO 205, Colo-205 cells
[2] = Homo sapiens, SK-OV-3, SKOV3 cells

CC(C)n1cnc2c(NCc3ccc(-c4ccccc4)cc3)nc(N3CCC(N)CC3)nc21 [UB-017, N-([1,1′-biphenyl]-4-ylmethyl)-2-(4-amino-piperidin-1-yl)-9-isopropyl-9H-purin-6-amine]
IC50 (N87 cells): ≤ 100 nM
IC50 (H69 cells; Homo sapiens, NCI-H69, 72 h): 100 to 300 nM
IC50 (HT-29 cells; Homo sapiens): ≤ 100 nM
IC50 (Colo-205 cells; [1]): 100 to 300 nM
IC50 (H82 cells): 100 to 300 nM
IC50 (SKOV3 cells; [2]): 100 to 300 nM
IC50 (MDA-MB-231 cells; Homo sapiens): ≤ 100 nM

CCn1cnc2c(NCc3ccc(-c4cccc(CO)n4)cc3)nc(N3CCOCC3)nc21 [UB-001]
IC50 (N87 cells): ≤ 100 nM
IC50 (H69 cells; Homo sapiens, NCI-H69, 72 h): ≤ 100 nM
IC50 (HT-29 cells; Homo sapiens): ≤ 100 nM
IC50 (Colo-205 cells; [1]): 100 to 300 nM
IC50 (H82 cells): 100 to 300 nM
IC50 (MDA-MB-231 cells; Homo sapiens): ≤ 100 nM

CCn1cnc2c(NCc3ccc(-c4ccccn4)cc3)nc(N[C@H]3CC[C@H](O)CC3)nc21 [UB-006]
IC50 (H69 cells; Homo sapiens, NCI-H69, 72 h): > 300 nM
IC50 (HT-29 cells; Homo sapiens): ≤ 100 nM
IC50 (Colo-205 cells; [1]): ≤ 100 nM
IC50 (SKOV3 cells; [2]): ≤ 100 nM
IC50 (MDA-MB-231 cells; Homo sapiens): ≤ 100 nM

CC(C)n1cnc2c(NCc3ccc(-c4ccccc4)cc3)nc(N3CCOCC3)nc21 [UB-009, N-([1,1′-biphenyl]-4-ylmethyl)-9-isopropyl-2-morpholino-9H-purin-6-amine]
IC50 (N87 cells): > 300 nM
IC50 (H69 cells; Homo sapiens, NCI-H69, 72 h): > 300 nM
IC50 (HT-29 cells; Homo sapiens): > 300 nM
IC50 (Colo-205 cells; [1]): > 300 nM
IC50 (H82 cells): > 300 nM
IC50 (SKOV3 cells; [2]): > 300 nM
IC50 (MDA-MB-231 cells; Homo sapiens): > 300 nM

CC(C)n1cnc2c(NCc3ccc(-c4ccccc4)cc3)nc(N3CCC[C@@H](N)C3)nc21 [UB-013, (R)-N-([1,1′-biphenyl]-4-ylmethyl)-2-(3-aminopiperidin-1-yl)-9-isopropyl-9H-purin-6-amine]
IC50 (N87 cells): ≤ 100 nM
IC50 (H69 cells; Homo sapiens, NCI-H69, 72 h): 100 to 300 nM
IC50 (HT-29 cells; Homo sapiens): ≤ 100 nM
IC50 (Colo-205 cells; [1]): ≤ 100 nM
IC50 (H82 cells): ≤ 100 nM
IC50 (SKOV3 cells; [2]): 100 to 300 nM
IC50 (MDA-MB-231 cells; Homo sapiens): ≤ 100 nM

CCn1cnc2c(NCc3ccc(-c4cccc(CO)n4)cc3)nc(N3CCN(C)CC3)nc21 [UB-003]
IC50 (H69 cells; Homo sapiens, NCI-H69, 72 h): 100 to 300 nM
IC50 (HT-29 cells; Homo sapiens): ≤ 100 nM
IC50 (Colo-205 cells; [1]): ≤ 100 nM
IC50 (MDA-MB-231 cells; Homo sapiens): ≤ 100 nM

CC(C)n1cnc2c(NCc3ccc(-c4ccccc4)cc3)nc(N3CCCCC3)nc21 [UB-008, N-([1,1′-biphenyl]-4-ylmethyl)-9-isopropyl-2-(Piperidin-1-yl)-9H-purin-6-amine]
IC50 (N87 cells): > 300 nM
IC50 (H69 cells; Homo sapiens, NCI-H69, 72 h): > 300 nM
IC50 (HT-29 cells; Homo sapiens): > 300 nM
IC50 (Colo-205 cells; [1]): > 300 nM
IC50 (H82 cells): > 300 nM
IC50 (SKOV3 cells; [2]): > 300 nM
IC50 (MDA-MB-231 cells; Homo sapiens): > 300 nM

CCn1cnc2c(NCc3ccc(-c4cccc(CO)c4)cc3)nc(N3CCNCC3)nc21 [UB-004]
IC50 (H69 cells): > 300 nM
IC50 (HT-29 cells; Homo sapiens): ≤ 100 nM
IC50 (Colo-205 cells; [1]): 100 to 300 nM
IC50 (SKOV3 cells; [2]): 100 to 300 nM
IC50 (MDA-MB-231 cells; Homo sapiens): ≤ 100 nM

CCn1cnc2c(NCc3ccc(-c4cccc(CO)c4)cc3)nc(N3CCNCC3)nc21 [UB-005]
IC50 (N87 cells): ≤ 100 nM
IC50 (H69 cells): ≤ 100 nM
IC50 (HT-29 cells): ≤ 100 nM
IC50 (Colo-205 cells; Colo-205 cells): ≤ 100 nM
IC50 (H82 cells): ≤ 100 nM
IC50 (SKOV3 cells; SKOV3 cells): ≤ 100 nM
IC50 (MDA-MB-231 cells): ≤ 100 nM

CCn1cnc2c(NCc3ccc(-c4cccc(CO)n4)cc3)nc(N3CCNCC3)nc21 [UB-002]
IC50 (N87 cells): ≤ 100 nM
IC50 (H69 cells; Homo sapiens, NCI-H69, 72 h): ≤ 100 nM
IC50 (HT-29 cells; Homo sapiens): ≤ 100 nM
IC50 (Colo-205 cells; [1]): ≤ 100 nM
IC50 (H82 cells): 100 to 300 nM
IC50 (MDA-MB-231 cells; Homo sapiens): ≤ 100 nM

CC(C)n1cnc2c(NCc3ccc(-c4ccccc4)cc3)nc(N3CCN(C)CC3)nc21 [UB-011, N-([1,l′-biphenyl]-4-ylmethyl)-9-isopropyl-2-(4-methylpiperazin-1-yl)-9H-purin-6-amine]
IC50 (N87 cells): 100 to 300 nM
IC50 (H69 cells; Homo sapiens, NCI-H69, 72 h): > 300 nM
IC50 (HT-29 cells; Homo sapiens): 100 to 300 nM
IC50 (Colo-205 cells; [1]): > 300 nM
IC50 (H82 cells): 100 to 300 nM
IC50 (SKOV3 cells; [2]): > 300 nM
IC50 (MDA-MB-231 cells; Homo sapiens): 100 to 300 nM

CC(C)n1cnc2c(NCc3ccc(-c4ccccc4)cc3)nc(N3CCC[C@H](N)C3)nc21 [UB-012, (S)-N-([1,1′-biphenyl]-4-ylmethyl)-2-(3-aminopiperidin-1-yl)-9-isopropyl-9H-purin-6-amine]
IC50 (N87 cells): ≤ 100 nM
IC50 (H69 cells; Homo sapiens, NCI-H69, 72 h): 100 to 300 nM
IC50 (HT-29 cells; Homo sapiens): ≤ 100 nM
IC50 (Colo-205 cells; [1]): ≤ 100 nM
IC50 (H82 cells): ≤ 100 nM
IC50 (SKOV3 cells; [2]): 100 to 300 nM
IC50 (MDA-MB-231 cells; Homo sapiens): ≤ 100 nM

Cn1cc(-n2cnc3c(NCc4ccc(-c5ccccc5)cc4)nc(N4CCNCC4)nc32)cn1 [UB-055, N-([1,1′-biphenyl]-4-ylmethyl)-9-(1-methyl-1H-pyrazol-4-yl)-2-(piperazin-1-yl)-9H-purin-6-amine]
Cyclin K IHC data of HepG2 cells (Cyclin K): D (D > 278 nM)
IC50 (HepG2 cells): > 300 nM

CC(C)n1cnc2c(NCc3ccc(-c4ccccc4)cc3)nc(N[C@H]3CC[C@@H](N)C3)nc21 [UB-039, N6-([1,1′-biphenyl]-4-yl-methyl)-N2-((1S,3R)-3-aminocyclopentyl)-9-isopropyl-9H-purin-2,6-diamine]
Cyclin K IHC data of HepG2 cells (Cyclin K): C (93 nM < C <= 278 nM)
IC50 (HepG2 cells): 50 to 100 nM

CC(C)n1cnc2c(NCc3ccc(-c4ccccc4OCCO)cc3)nc(N3CCNCC3)nc21 [UB-047, 2-((4′-(((9-isopropyl-2-(piperazin-1-yl)-9H-purin-6-yl)amino)methyl)-[1,1′-biphenyl]-2-yl)oxy)ethan-1-ol]
Cyclin K IHC data of HepG2 cells (Cyclin K): D (D > 278 nM)
IC50 (HepG2 cells): 50 to 100 nM

c1ccc(-c2ccc(CNc3nc(N4CCNCC4)nc4c3ncn4-c3ccccc3)cc2)cc1 [UB-053, N-([1,1′-biphenyl]-4-ylmethyl)-9-phenyl-2-(piperazin-1-yl)-9H-purin-6-amine]
Cyclin K IHC data of HepG2 cells (Cyclin K): D (D > 278 nM)
IC50 (HepG2 cells): > 300 nM

CC(C)n1cnc2c(NCc3ccc(-c4ccccc4)cc3)nc(N[C@H]3CC[C@H](N)C3)nc21 [UB-040, N6-([1,1′-biphenyl]-4-yl-methyl)-N2-((1S,3S)-3-aminocyclopentyl)-9-isopropyl-9H-purin-2,6-diamine]
Cyclin K IHC data of HepG2 cells (Cyclin K): B (31 nM < B <= 93 nM)
IC50 (HepG2 cells): < 50 nM

CC(C)n1cnc2c(NCc3ccc(-c4ccccc4O)cc3)nc(N3CCNCC3)nc21 [UB-046, 4′-(((9-isopropyl-2-(piperazin-1-yl)-9H-purin-6-yl)amino)methyl)-[1,1′-biphenyl]-2-ol]
Cyclin K IHC data of HepG2 cells (Cyclin K): D (D > 278 nM)
IC50 (HepG2 cells): 100 to 300 nM

CC(C)n1cnc2c(NCc3ccc(-c4ccccc4)c(OCCN)c3)nc(N3CCNCC3)nc21 [UB-062, N-((2-(2-aminoethoxy)-[1,l′-biphenyl]-4-yl)methyl)-9-isopropyl-2-(piperazin-1-yl)-9H-purin-6-amine]
Cyclin K IHC data of HepG2 cells (Cyclin K): D (D > 278 nM)
IC50 (HepG2 cells): > 300 nM
